Data published in ChEMBL document CHEMBL5149985, “Discovery of cytotoxic natural products from Red Sea sponges: Structure and synthesis” (Eur J Med Chem, 2021).

Key:
HT-29 = test: cells; settings: Homo sapiens, HT-29, 72 h
Description: Anticancer activity against human HT-29 cells assessed as inhibition of cell growth measured after 72 hrs by SRB assay

A549 [1] = test: cells; settings: Homo sapiens, A549, 72 h
Description: Anticancer activity against human A549 cells assessed as inhibition of cell growth measured after 72 hrs by SRB assay

MDA-MB-231 [2] = test: cells; settings: Homo sapiens, MDA-MB-231, 72 h
Description: Anticancer activity against human MDA-MB-231 cells assessed as inhibition of cell growth measured after 72 hrs by SRB assay

HepG2 [3] = test: Anticancer activity against human HepG2 cells assessed as inhibition of cell growth incubated for 48 hrs by crystal violet staining based microplate reader analysis; format: functional; settings: HepG2, 48 h
HCT-116 [4] = test: Anticancer activity against human HCT-116 cells assessed as inhibition of cell growth measured after 72 hrs by MTT assay; format: functional, cell-based; settings: HCT-116, 72 h
HCT-116 [5] = test: Anticancer activity against human HCT-116 cells assessed as inhibition of cell growth by MTS assay; format: functional, cell-based
MDA-MB-231 [6] = test: Antimigratory activity against human MDA-MB-231 cells assessed as inhibition of cell migration at 10 uM incubated for 24 hrs by scratch wound healing assay relative to control; format: functional; set-up: scale not given: the % may be the effect or the level left
MDA-MB-231 [7] = test: Anticancer activity against human MDA-MB-231 cells assessed as cell viability measured after 24 hrs by MTT assay; format: functional, cell-based; settings: MDA-MB-231, 24 h
MDA-MB-231 [8] = test: Antimigratory activity against human MDA-MB-231 cells assessed as inhibition of cell migration at 2 uM incubated for 24 hrs by […] relative to control; format: functional; set-up: scale not given: the % may be the effect or the level left
HeLa [9] = test: Antiproliferative activity against human HeLa cells assessed as cell viability measured after 24 hrs by MTT assay; format: functional, cell-based
HeLa [10] = test: Anticancer activity against human HeLa assessed as inhibition of cell growth incubated for 48 hrs by SRB assay; format: functional, cell-based
HCT-116 [11] = test: Anticancer activity against human HCT-116 cells assessed as inhibition of cell growth incubated for 72 hrs by MTT assay; format: functional, cell-based; settings: HCT-116, 72 h
HeLa [12] = test: Anticancer activity against human HeLa cells assessed as inhibition of cell growth incubated for 24 hrs by MTT assay; format: functional, cell-based
A549 [13] = test: Anticancer activity against human A549 cells assessed as inhibition of cell growth incubated for 24 hrs by MTT assay; format: functional, cell-based; settings: A549, 24 h
MCF7 [14] = test: Anticancer activity against human MCF7 cells assessed as inhibition of cell growth incubated for 24 hrs by MTT assay; format: functional, cell-based; settings: MCF7, 24 h
MCF7 [15] = test: Anticancer activity against human MCF7 cells assessed as inhibition of cell growth incubated for 48 hrs by ELISA based SRB assay; format: functional; settings: MCF7, 48 h
HepG2 [16] = test: Anticancer activity against human HepG2 cells assessed as inhibition of cell growth incubated for 48 hrs by ELISA based SRB assay; format: functional; settings: HepG2, 48 h
A549 [17] = test: Anticancer activity against human A549 cells assessed as inhibition of cell growth incubated for 96 hrs; format: functional, cell-based; settings: A549, 96 h
PC-3 = test: Anticancer activity against human PC-3 cells assessed as inhibition of cell growth incubated for 96 hrs; format: functional, cell-based; settings: PC-3, 96 h
HepG2 [18] = test: Anticancer activity against human HepG2 cells assessed as inhibition of cell growth incubated for 96 hrs; format: functional, cell-based; settings: HepG2, 96 h
MCF7 [19] = test: Potency index, ratio of latrunculin IC50 to test compound IC50 for cytotoxicity against human MCF7 cells; format: functional
MCF7 [20] = test: Anticancer activity against human MCF7 cells assessed as inhibition of cell growth incubated for 72 hrs by MTT assay; format: functional, cell-based; settings: MCF7, 72 h
[21] = Inhibition of actin (unknown origin) polymerization at 100 nM incubated for 20 mins in presence of ATP by ELISA analysis relative to control; settings: Homo sapiens
Homo sapiens = species on record: Homo sapiens; test: Inhibition of actin (unknown origin) polymerization at 1 uM incubated for 20 mins in presence of ATP by ELISA analysis relative to control
MDA-MB-231 [22] = test: Anticancer activity against human MDA-MB-231 cells assessed as inhibition of cell growth incubated for 72 hrs by MTT assay; format: functional, cell-based; settings: MDA-MB-231, 72 h
[23] = Inhibition of actin (unknown origin) polymerization incubated for 20 mins in presence of ATP by ELISA analysis; set-up: species or system Homo sapiens
HCT-116 [24] = test: Antiproliferative activity against human HCT-116 cells assessed as cell viability measured after 24 hrs by MTT assay; format: functional, cell-based; settings: HCT-116, 24 h
MDA-MB-231 [25] = test: Antimigratory activity against human MDA-MB-231 cells assessed as reduction in cell growth measured after 48 hrs by SRB assay; format: functional, cell-based; settings: MDA-MB-231, 48 h

Structure (SMILES): COc1cccc2c1C(=O)c1c(O)c3c(c(O)c1C2=O)C[C@@](O)(C(=O)CO)C[C@@H]3O[C@H]1C[C@H](N)[C@H](O)[C@H](C)O1 [DOXORUBICIN]
- IC50 (HT-29): 400 nM
- IC50 (A549 [1]): 350 nM
- IC50 (MDA-MB-231 [2]): 300 nM

Structure (SMILES): CC(C)[C@]1(O)CC[C@@]2(C)C[C@](O)([C@H]3CC[C@@H]4[C@]3(C)CC[C@H]3OC(C)(C)[C@H](O)C(=O)[C@@H](O)[C@]43C)CC[C@@H]21
- IC50 (HepG2 [3]): 23 nM

Structure (SMILES): CC(/C=C/c1ccccc1)=C\[C@H](O)[C@@H]1CCC(=O)N[C@@H](CO)C(=O)NC2C[n+]3cc(n([C@@H]4O[C@H](CO)[C@H](O)[C@H](O)[C@H]4O)c3)CC(NC(=O)CCC[C@@H](C(=O)[O-])NC(=O)[C@@H](O)CNC(=O)[C@H](Cc3ccc(Br)cc3)NC(=O)[C@H]([C@@H](O)C(N)=O)NC(=O)[C@H](CC(N)=O)NC2=O)C(=O)N[C@@H]([C@@H](C)O)C(=O)N[C@@H](CO)C(=O)N[C@@H](Cc2ccccc2)C(=O)N1 (stereo not given in full)
- IC50 (HCT-116 [4]): 6000 nM

Structure (SMILES): CO[C@@H]1C[C@H](C)O[C@@H](C(O)C[C@H](C)[C@H](O)[C@H](C)[C@H]2OC(=O)/C=C/C(C)=C/C[C@H](O)C[C@H]3C=CC[C@@H](C[C@H](OC)[C@@H](C)[C@@H](O)C[C@@H](O)[C@H](C)[C@@H]([C@@H](C)[C@@H](O)[C@@H](C)CC[C@H]4C[C@H](OC)C[C@H](C)O4)OC(=O)/C=C/C(C)=C/C[C@H](O)C[C@@H]4C=CC[C@@H](C[C@H](OC)[C@@H](C)[C@@H](O)C[C@@H](O)[C@@H]2C)O4)O3)C1 (stereo not given in full)
- IC50 (HCT-116 [5]): 5.6 nM

Structure (SMILES): CCOC(=O)NCCCCNC(=O)C1=NO[C@]2(C=C(Br)C(OC)=C(Br)[C@@H]2O)C1 [SUBEREAMOLLINE A]
- Activity (MDA-MB-231 [6]): 52%
- IC50 (MDA-MB-231 [7]): 400 nM
- Activity (MDA-MB-231 [8]): 38%

Structure (SMILES): CCOC(=O)Cc1c(O)cc(Br)c(O)c1Br
- IC50 (HeLa [9]): 13300 nM
- IC50 (HeLa [10]): 13300 nM

Structure (SMILES): CC(C)[C@@H](C)/C=C/[C@@H](C)[C@H]1CC[C@@]23O[C@@]24C(=O)C[C@H]2CC(=O)CC[C@]2(C)[C@H]4CC[C@]13C
- IC50 (HCT-116 [11]): 45000 nM

Structure (SMILES): C#C/C=C\CCCCCCCCC#CCCC(=O)NCCc1ccccc1
- IC50 (HeLa [12]): 4100 nM
- IC50 (A549 [13]): 30000 nM
- IC50 (MCF7 [14]): 19400 nM

Structure (SMILES): CCCCCCCCCCCCCCCCCC[C@@H](O)C(=O)N[C@@H](CO)[C@H](O)[C@H](O)CCCCCCCCCCCCCCCC
- IC50 (MCF7 [15]): 28300 nM
- IC50 (HepG2 [16]): 25400 nM

Structure (SMILES): CC(=O)O[C@@H]1OC=C2C1[C@]1(C)C(C[C@@H]2OC(C)=O)[C@]2(C)CCC3C(C)(C)CCC[C@]3(C)C2C[C@H]1O (stereo not given in full)
- IC50 (A549 [17]): 27 nM
- IC50 (PC-3): 77 nM
- IC50 (HepG2 [18]): 41 nM

Structure (SMILES): C/C1=C/C(=O)O[C@@H]2C[C@@H](CC[C@H](C)/C=C\C=C\CC1)O[C@@](O)([C@@H]1CSC(=O)N1CO)C2
- Ratio IC50 (MCF7 [19]): 4
- IC50 (MCF7 [20]): 120 nM
- inhibition [21]: 35%
- inhibition (Homo sapiens): 90%
- IC50 (MDA-MB-231 [22]): 2990 nM
- IC50 [23]: 210 nM

Structure (SMILES): COC1=C(Br)C[C@]2(OC=C1Br)ON=C(C(=O)NCCCOc1c(Br)cc(CCNC=C3C(=O)C=CC3=O)cc1Br)[C@@H]2O
- IC50 (MDA-MB-231 [7]): 290 nM
- IC50 (HeLa [9]): 2100 nM
- IC50 (HCT-116 [24]): 5100 nM
- IC50 (MDA-MB-231 [25]): 310 nM
